# Experimental data: PubChem BioAssay AID2305 (GlaxoSmithKline (GSK), 2010)
# pIC50: −log10 of the molar value.
# System: P. falciparum 3D7 growth, pLDH absorbance
# Assay: P. falciparum 3D7 growth inhibition, dose response, strain 3D7 (AID 2305)
row,Compound,pIC50
1,CC(C)(C)C1CCC(C(=O)c2ccc3ccccc3c2O)CC1 (stereo not given),6.12
2,Cc1cc(NCCC(=O)Nc2ccccc2)nc(NCc2ccccc2C)n1,6.18
3,Fc1ccc(-c2csc3ncnc(Cl)c23)cc1,6.48
4,CC(C)(Cc1ccc(Cl)cc1)NCCCCCCNCCc1ccc(O)c(O)c1,5.92
5,Cc1cccc(S(=O)(=O)Nc2cccc(CCN3CCC(N4CCCCC4)CC3)c2)c1,5.88
6,O=C(/C=C/c1ccc(Cl)c(Cl)c1)NCCCCCCN1CCN(C(=O)Nc2cc(F)cc(F)c2)CC1,5.97
7,COc1ccc2nc3cc(Cl)ccc3c(NCc3ccccc3)c2c1,6.06
8,NC(=O)COc1c(C2CCN(CCN3CCC(CNC(=O)c4ccc(-c5ccc(C(F)(F)F)cc5)cc4)CC3)CC2)ccc2c1CCCC2,6.01
9,COc1ccc(CCC(C)N2C[C@@H](N)[C@H](c3cn(C)c4cnccc34)C2)cc1 (stereo not given in full),5.87
10,COc1cccc(Nc2nccc(NCC(O)c3ccc(C(F)(F)F)cc3)n2)c1 (stereo not given),6.18
11,Cc1cc(N)c2cc(NC(=O)/C=C/c3ccccc3Cl)ccc2n1,6.40
12,Clc1ccc(Nc2nc3ccc(Cl)cc3nc2Nc2ccc(Cl)cc2)cc1,6.89
13,N#Cc1ccc(C(=O)Nc2cccc(-c3ccc(CN4CCCC4)cc3)c2)cc1,6.14
14,COc1nc(Nc2cccc(C)c2)nc(OC)n1,6.00
15,COc1ccc(C(=O)NCc2ccccc2-c2ccc(C(C)(C)C)cc2)cc1O,7.00
16,Cc1cccc2[nH]c(-c3cccc(-c4ccc(NC(=O)Nc5ccc(Cl)c(Cl)c5)cc4)c3)nc12,6.24
17,CCCC(N)C(=O)NC1CCN(c2c(F)c(N)c3c(=O)c(C(=O)O)cn4c3c2Oc2ccccc2-4)C1 (stereo not given),6.44
18,Cn1nc(-c2ccc(Cl)cc2)c2cc(C(=O)NCCN3CCOCC3)sc21,6.14
19,O=C(/C=C/c1ccc(-c2ccccc2)cc1)NCCCCCN1CCC(c2c[nH]c3ccccc23)CC1,6.07
20,CN(C)Cc1cc2c(O)c(Cc3ccccc3)ccc2o1,5.96
21,CNCCNCc1ccc(-c2ccc(-c3nc4c(C)cccc4[nH]3)s2)cc1,6.14
22,CCN(CCCN1CCCCC1)c1cc(C)nc(Nc2ccc(Cl)cc2)n1,6.42
23,CC(CCc1ccccc1)NCC(O)c1ccc2c3c(cccc13)C(=O)N2C (stereo not given),6.09
24,CNC(=O)c1cnc(Nc2ccc(N3CCN(C)CC3)c(C)c2)nc1NC,6.06
25,O=C(NCCCCNCC(Cc1cccc(O)c1)c1ccccc1)c1ccc(NC(=O)c2ccc(Cl)cc2)cc1 (stereo not given),5.98

row,Compound,pIC50
1,COc1ccc2nc(C)cc(NCc3ccc4ccccc4c3)c2c1,6.33
2,Cc1cc(CN2CCC(N3CC(c4ccccc4)(c4ccccc4)OCC3=O)C2)ccc1O (stereo not given),5.97
3,N#Cc1cccc(C(=O)Nc2cccc(-c3ccc(C(=O)NCCCN4CCOCC4)cc3)c2)c1,6.12
4,O=C(NC1CCN(Cc2ccccc2)CC1)c1cc(-c2cccnc2)nc2ccc(Cl)cc12,6.12
5,O=c1ccc2ccc(O)c(O)c2o1,7.52
6,Cc1ccc(N2C(N)=NC(N)=NC2(C)C)cc1Cl,8.00
7,Nc1nc(N)c2cc(Sc3ccc4ccccc4c3)ccc2n1,7.70
8,CCN(CCCN1CCCCC1)c1cc(C)nc(Nc2ccc(C(C)C)cc2)n1,6.27
9,CC(C)COc1ccc(Cl)cc1Cc1ccc(-c2nc3ccc(Br)cc3[nH]2)o1,5.85
10,COc1cc2c(cc1OC)CN(CCc1ccc(NC(=O)c3cc4cc(Cl)ccc4[nH]3)cc1)CC2,5.99
11,CCCCN(Cc1cc(Cl)c(OCC)c(OC)c1)c1ccc(C(O)(C(F)(F)F)C(F)(F)F)cc1,6.04
12,CC[C@H](C)CNC(=O)c1cccc(-c2cccc(CN3CCC(N4CCCC4)CC3)c2)n1,6.15
13,Oc1cccc(-c2nc(-c3cccc(I)c3)c(-c3ccc(-c4nc(-c5cccc(O)c5)[nH]c4-c4cccc(I)c4)cc3)[nH]2)c1,6.04
14,CC(=O)c1cccc(NC(=O)NC2CCN(CCCCCNC(=O)/C=C/c3ccc(Cl)c(Cl)c3)CC2)c1,6.08
15,CN(C(=O)C(C)(C)Oc1ccc(Cl)cc1)C1CCN(CCCCCNC(=O)/C=C/c2ccc(Cl)c(Cl)c2)CC1,6.04
16,Cc1[nH]c(C)c(-c2ccc(Oc3ccccc3)cc2)c(=O)c1Br,7.30
17,C(=NNc1cc(-c2ccccc2)nc2ccccc12)c1cccnc1,5.91
18,CN1CCN(CCCN(Cc2csc(-c3ccc(CNCc4ccccc4)cc3)n2)C(=O)Nc2ccc3ccccc3c2)CC1,5.96
19,Cc1ccc(NC(=O)c2ccnc(N3CCN(c4ccncc4)CC3)c2)cc1F,6.06
20,CNC(=O)Cc1ccc(C(=O)Nc2cccc(-c3cccc(-c4nc5c(C)cccc5[nH]4)c3)c2)cc1,6.28
21,N#Cc1ccc(NC(=NCc2cccnc2)Nc2ccc(-c3ccccc3)cc2)c(O)c1,6.09
22,CC(Oc1ccc(Cl)cc1)C(=O)NCCC1CCN(CCCCCNC(=O)/C=C/c2ccc(Cl)c(Cl)c2)CC1 (stereo not given),5.99
23,CCc1cn(CCOC)c2ccc(C(=O)N[C@@H](Cc3ccccc3)[C@H](O)CNC(C)(C)CCCC(C)C)cc12,6.24
24,Cc1cc(N[C@@H](Cc2ccccc2)C(=O)NC2CCCC2)nc(NCC2CCCCC2)n1,5.93
25,Cc1cccc2[nH]c(-c3ccc(-c4ccc(CNCc5ccc(CN)cc5)cc4)s3)nc12,6.36

row,Compound,pIC50
1,O=c1cc(NCCCNC(CNCCc2ccccc2)c2cc(Br)cc(Br)c2)[nH]c2ccccc12 (stereo not given),6.07
2,CC(C)CCOc1ccc(NC(=O)c2cccs2)cc1,6.29
3,O=C(Nc1ccc(OC2CCN(Cc3ccc(F)cc3)CC2)c(Cl)c1)c1ccsc1,6.14
4,COc1ccc(CN2CCCN(Cc3cccc(NC(=O)c4ccc(-c5ccccc5)cc4)c3)CC2)cc1,6.03
5,N#Cc1ccc(-c2ccc(C(=O)Nc3ccc4c(c3)CCN(C3CCC3)CC4)nc2)cn1,5.94
6,Cc1cc(=O)[nH]c(-n2nc(C)cc2NC(=O)C2(c3ccc(Cl)cc3)CCCC2)n1,6.54
7,O=C(NCc1cccc(F)c1)Nc1cccc(-c2ccc(-c3nc4ccc(F)cc4[nH]3)cc2)c1,5.98
8,O=C1C(c2ccccc2)=C(Nc2ccc(Cl)cc2)c2ccccc21,6.21
9,CC1(C)N=C(N)N=C(N)N1OCCCCON1C(N)=NC(N)=NC1(C)C,7.15
10,Cc1cccc(NC(c2cccs2)c2c(NC(=O)c3ccccc3)sc(C)c2C)n1 (stereo not given),6.08
11,CCc1c(C(=O)NC2CCC(N3CCC(c4ccccc4OC)CC3)CC2)[nH]c2ccc(Br)cc12 (stereo not given),5.95
12,O=C(Nc1cccc(CN2CCCN(Cc3ccc4c(c3)OCO4)CC2)c1)c1cc2ccccc2s1,6.00
13,CC(C)CCN1CCCN(Cc2cccc(NC(=O)c3ccc(-c4ccccc4)cc3)c2)CC1,6.05
14,CCN1CCc2nc3ccccc3c(C(=O)Nc3ccc(C#N)cc3)c2C1,6.11
15,CN1CCC(N2CCN(Cc3cccc(-c4ccc(-c5nc6ccc(C(F)(F)F)cc6[nH]5)cc4)c3)CC2)CC1,6.85
16,O=C(NCC1CCN(Cc2ccc3c(c2)OCCO3)C1)c1cc(-c2ccccc2F)cs1 (stereo not given),5.99
17,CCOC(=O)c1ccc2nc(-c3ccc(C(=O)NC4CCN(Cc5ccccc5)CC4)s3)[nH]c2c1,6.13
18,CC(C)CCCC(C)(C)NC[C@@H](O)[C@H](Cc1ccccc1)NC(=O)c1cc(NC(C)C)cc(N2CCCCS2(=O)=O)c1F,6.66
19,O=C(/C=C/c1ccc(Cl)c(Cl)c1)NCCCCCN1CCCN(C(=O)Nc2ccc(Cl)c(Cl)c2)CC1,6.07
20,CC(=O)Nc1ccc(CN2CCC(NC(=O)c3ccc(-c4ccc(N(C)C)cc4)s3)CC2)cc1,6.06
21,Oc1ccc(CCNc2nc(NCc3ccccc3-c3ccc(F)cc3)nc(N3CCNCC3)n2)cc1,5.97
22,CCOc1ccc2c(NN=Cc3ccc(F)cc3)cc(C)nc2c1,6.24
23,COc1ccc(-c2c3c(=O)n(C)c(=O)n(C)c3c3nnc4ccccc4n23)cc1,6.00
24,Cc1nn(CC(O)Cn2c3ccc(Br)cc3c3cc(Br)ccc32)c(C)c1Br (stereo not given),6.15
25,CCCCn1c(Sc2ccc(C#N)c([N+](=O)[O-])c2)nnc1-c1ccc(OC)cc1,5.99

row,Compound,pIC50
1,Cc1ccc(Nc2nccc(Nc3ccc4c(c3)nc(Nc3cc(C(C)(C)C)on3)n4C)n2)cc1S(C)(=O)=O,6.22
2,COc1cc(NC(=O)/C=C/c2ccccc2OC(F)(F)F)cc(OCCN2CCCCC2)c1,6.72
3,CCCc1ccc(C2CCN(CCCCNC(=O)c3ccc(NC(=O)c4ccc(Cl)cc4)cc3)CC2)cc1,6.20
4,Cc1ccc(CNC(=O)[C@H](Cc2ccccc2)Nc2ccnc(NCC3CCCCC3)n2)cc1,5.92
5,Oc1ccc2[nH]cc(C3CCN(CCCCCCCCCN4CCC(c5c[nH]c6ccc(O)cc56)CC4)CC3)c2c1,6.51
6,CN1CCCN(Cc2ccc(-c3ccc(NS(=O)(=O)c4cccc5cccnc45)cc3)cc2)CC1,6.16
7,CCn1c(SC)nnc1C1CCCN(CC(=O)Nc2nc3ccc(OC)cc3s2)C1 (stereo not given),6.12
8,Cc1cccc(/C=C/C(=O)NC2CCC(N3CCC(c4ccccc4C)CC3)CC2)c1 (stereo not given),5.95
9,CC1CN(C(=O)c2sc3ccccc3c2Cl)CC(C)O1 (stereo not given),7.05
10,O=C(Nc1cccc([N+](=O)[O-])c1)N(Cc1ccc(Cl)c(Cl)c1)C1CCNCC1,6.14
11,O=C(/C=C/c1ccc(Cl)cc1)NCCCCCN1CCCC(C(=O)Nc2cccc(Cl)c2)C1 (stereo not given),6.68
12,CN(C(=O)c1snnc1-c1ccccc1)C1CCN(CCCCCNC(=O)/C=C/c2ccc(Cl)c(Cl)c2)CC1,6.72
13,COc1cc2nc(N3CCN(C(=O)c4cccc(I)c4)CC3)nc(N)c2cc1OC,5.88
14,CCN1CCN(CCCCNc2c3ccccc3nc3ccccc23)CC1,6.07
15,Clc1ccc2c(NCc3ccc4c(c3)OCO4)ccnc2c1,6.57
16,O=C(/C=C/c1ccc(Cl)c(Cl)c1)NCCCCCN1CCC(NC(=S)Nc2ccc(Cl)cc2Cl)CC1,6.13
17,CC(CN(C)C)C(=O)Nc1cccc(-c2ccc(-c3nc4ccc(F)cc4[nH]3)cc2)c1 (stereo not given),6.19
18,CN1CCC(NCc2cccc(-c3ccc(S(=O)(=O)NCCN4CCCC4)s3)c2)CC1,6.03
19,COc1ccc(-c2ccc(NC(=O)c3cccc(C#N)c3)cc2)cc1CN1CCNCC1,6.14
20,Cc1cc(NC(=O)[C@H](CC(C)C)Nc2ccc(C#N)c3ccccc23)ccc1F,6.11
21,CC(=NNC(=S)NCCc1ccccn1)c1ccccn1,6.49
22,Cc1cccc(C(=O)Nc2ccnc(N3CCC(N(C)Cc4cccc(O)c4)CC3)c2)c1,6.04
23,Fc1cccc2sc(Nc3nc(-c4ccccn4)cs3)nc12,6.04
24,Cn1c(Nc2cc(C(C)(C)C)on2)nc2cc(Nc3ccnc(Nc4ccc(CS(C)(=O)=O)cc4)n3)ccc21,6.01
25,O=C(/C=C/c1ccc(Cl)cc1)NCCCCCN1CCCN(C(=O)Nc2ccc(Cl)c(C(F)(F)F)c2)CC1,6.04
